For test [1], the system named is Candida albicans. Briefly: Test 1: Action against Candida albicans (in vitro), suppression of mycelial type growth. The conditions noted are these: ATCC44859, C. albicans ATCC 44859, 10% fetal-bovine-serum added MEM, 37° C., 24 hours, CO2 incubator, read-out: Terminal point (minimum medicament concentration permitting the apparent suppression of mycerial type growth). The format is cell-based, Candida albicans ATCC 44859. The method, then: Test 1: Action Against Candida albicans (in vitro)
The resulting mixture was incubated at 37° C. for 24 hours in a CO2 gas incubator. After incubation, a morphological change of C. albicans was observed under an inverted microscope. The minimum medicament concentration permitting the apparent suppression of mycerial type growth compared with that of a medicament-free control was designated as a terminal point (ng/ml).

In test [2] the test system is Aspergillus fumigatus. Put plainly: Test 2: Action against Aspergillus fumigatus (in vitro), MIC. In kind it is cell-based, Aspergillus fumigatus IFM 40808. The conditions noted are these: A. fumigatus IFM 40808, MOPS-containing RPMI 1640, pH 7, almar Blue, 35° C., 48 hours. The method, then: Test 2: Action Against Aspergillus fumigatus (in vitro)
They were incubated at 35° C. for 48 hours. Judgment was made visually and the minimum medicament concentration not permitting a change into red (the medium maintained blue color) was designated as an MIC value (μg/ml).

Test [3] has as its system C. albicans IFM 40009. Put plainly: Test 3: Action against Candida albicans (in vivo), systemic infection in mice. The conditions noted are these: i.v. C. albicans 3.0×10^6 cells/mouse, oral 1.25 mg/kg each, four times; for Surviving mice on Day 14 (number of surviving mice/total number in group): Day 14, control 0/11; for Average Survival days: Kaplan-Meier method (Cox mantel test), control 4.5. The method, then:
Test 3: Action Against Candida albicans (in vivo)
After 4-week-old, male, ICR (CRJ: CD-1) mice were fasted for 6 hours, C. albicans IFM 40009 was inoculated to the tail vein of each of the mice to give an amount of 3.0×10^6 cells/mouse, whereby infection was caused. A control group consisted of 11 mice, while a medicament-administered group consisted of 5 mice. The medicament dissolved in 20% polyethylene glycol was orally administered 1 hour after the inoculation of the fungus and then consecutively once a day 24 hours after the inoculation, four times in total, at 1.25 mg/kg each. The survival condition on Day 14 after the infection was compared. In addition, the survival days of the control group and the medicament-administered group were detected by the Kaplan-Meier method (Cox mantel test). Incidentally, Fluconazole was employed as a medicament for comparison.

In brackets after ≈: the same amount, converted by molar mass.

Broadly, the MIC is the least concentration at which growth counts as inhibited.

As to `CCS(=O)(=O)C(F)(F)C(O)(Cn1cncn1)c1ccc(F)cc1` (single isomer, unassigned; (-)) [Example 22(2), (-)-1-(Ethylsulfonyl)-1,1-difluoro-2-(4-fluorophenyl)-3-(1H-1,2,4-triazol-1-yl)-2-propanol], the minimal effective concentration in test [1] came out at 0.0156 µg/mL. This molecule also yielded a minimum inhibitory concentration (MIC) in test [2] of 8 µg/mL (≈ 22.9 µM).
In the same order, the values of `CCSC(F)(F)C(O)(Cn1cncn1)c1ccc(F)cc1F` (stereo not drawn) [Example 9, 2-(2,4-difluorophenyl)-1-(ethylthio)-1,1-difluoro-3-(1H-1,2,4-triazol-1-yl)-2-propanol] are 0.0078 µg/mL and 2 µg/mL (≈ 5.96 µM).
For `CCSC(F)(F)C(O)(Cn1cncn1)c1ccc(Cl)cc1Cl` (stereo not drawn) [Example 12, 2-(2,4-dichlorophenyl)-1-(ethylthio)-1,1-difluoro-3-(1H-1,2,4-triazol-1-yl)-2-propanol], in that order: 0.0039 µg/mL and 1 µg/mL (≈ 2.72 µM).
As for `OC(Cn1cncn1)(Cn1cncn1)c1ccc(F)cc1F` [Fluconazole, reference compound], in test [1], the minimal effective concentration was 0.25 µg/mL. Besides, in test [2], the minimal inhibitory concentration (MIC) was above 128 µg/mL. In test [3], the “Surviving mice on Day 14 (number of surviving mice/total number in group)” value is 1/5 and the “Average Survival days” value was 11.0 days.
With `CCS(=O)(=O)C(F)(F)C(O)(Cn1cncn1)c1ccc(F)cc1F` (single isomer, unassigned; (-)) [Example 21(2), (-)-2-(2,4-difluorophenyl)-1-(ethylsulfonyl)-1,1-difluoro-3-(1H-1,2,4-triazol-1-yl)-2-propanol], the minimal effective concentration in test [1] is 0.0156 µg/mL. Besides, the MIC in test [2] was 4 µg/mL (≈ 10.9 µM).
`CCSC(F)(F)C(Cn1cncn1)(OC)c1ccc(F)cc1F` (stereo not drawn) [Example 13, 1-[2-(2,4-difluorophenyl)-3-ethylthio-3,3-difluoro-2-methoxypropyl]-1H-1,2,4-triazole]: the minimal effective concentration in test [1] was determined as 0.0313 µg/mL. Further, 8 µg/mL (≈ 22.9 µM) was the least that counted as inhibitory in test [2] (MIC).
For `CCS(=O)(=O)C(F)(F)C(O)(Cn1cncn1)c1ccc(Cl)cc1Cl` (stereo not drawn) [Example 18, 2-(2,4-dichlorophenyl)-1-(ethylsulfonyl)-1,1-difluoro-3-(1H-1,2,4-triazol-1-yl)-2-propanol], in that order: 0.0156 µg/mL and 8 µg/mL (≈ 20 µM).
In the same order, the values of `CCSC(F)(F)C(O)(Cn1cncn1)c1ccc(F)cc1` (stereo not drawn) [Example 10, 1-(ethylthio)-1,1-difluoro-2-(4-fluorophenyl)-3-(1H-1,2,4-triazol-1-yl)-2-propanol] are 0.0313 µg/mL and 8 µg/mL (≈ 25.2 µM).
For `CCSC(F)(F)C(O)(Cn1cncn1)c1ccc(C(F)(F)F)cc1` (stereo not drawn) [Example 11, 1-(ethylthio)-1,1-difluoro-2-(4-trifluoromethylphenyl)-3-(1H-1,2,4-triazol-1-yl)-2-propanol], in that order: 0.0078 µg/mL and 16 µg/mL (≈ 43.6 µM).
Turning to `CCS(=O)(=O)C(F)(F)C(O)(Cn1cncn1)c1ccc(F)cc1F` (racemic) [Example 15, 2-(2,4-difluorophenyl)-1-(ethylsulfonyl) -1,1-difluoro-3-(1H-1,2,4-triazole-1-yl)-2-propanol], the minimal effective concentration in test [1] was 0.0313 µg/mL. The same molecule had a minimum inhibitory concentration (MIC) in test [2] of 8 µg/mL (≈ 21.8 µM). In test [3], the “Surviving mice on Day 14 (number of surviving mice/total number in group)” value is 4/5 and the “Average Survival days” value is recorded as 14.00 days.
